How the values were obtained:
[1] = test system: UO-31; assay: NCI 60 panel growth inhibition (SRB), renal cancer; type: cell-based, human; settings: UO-31, 10 μM
Protocol: (§1) Screening of cytotoxic activity against a panel of sixty human tumor cell lines The selected compounds by NCI were evaluated for their anticancer activity in a two- stage process. […] Then, the output from the single dose screen is reported as a mean graph. […] Assay protocol. […] For a typical screening experiment, cells are inoculated into 96 well microtiter plates in 100 µL at plating densities ranging from 5000 to 40,000 cells/well depending on the doubling time of individual cell lines. […] After 24 h, two plates of each cell line are fixed in situ with TCA, to represent a measurement of the cell population for each cell line at the time of drug addition (Tz). The experimental drugs are solubilized in dimethyl sulfoxide at 400-fold the desired final maximum test concentration and stored frozen prior to use. At the time of drug addition, an aliquot of frozen concentrate is thawed and diluted to twice the desired final maximum test concentration with complete medium containing 50 µg/mL gentamicin. Additional four, 10-fold or ½ log serial dilutions are made to provide a total of five drug concentrations plus control. […] For adherent cells, the assay is terminated by the addition of cold TCA. […] The supernatant is discarded, and the plates are washed five times with tap water and air dried. […] Using the seven absorbance measurements [time zero, (Tz), control growth, (C), and test growth in the presence of drug at the five concentration levels (Ti)], the percentage growth is calculated at each of the drug concentrations levels. Percentage growth inhibition is calculated as: [(Ti Tz)/(C–Tz)] x 100 for concentrations for which Ti>/=Tz and [(Ti-Tz)/Tz] x 100 for concentrations for which Ti < Tz. Three dose response parameters are calculated for each experimental agent. […] The drug concentration resulting in total growth inhibition (TGI) is calculated from Ti = Tz. […] Values are calculated for each of these three parameters if the level of activity is reached; however, if the effect is not reached or is exceeded, the value for that parameter is expressed as greater or less than the maximum or minimum concentration tested.

[2] = test system: 786-0; assay: NCI 60 panel growth inhibition (SRB), renal cancer; type: cell-based, human; settings: 786-0, 10 μM
Protocol: as §1

[3] = test system: SN12C; assay: NCI 60 panel growth inhibition (SRB), renal cancer; type: cell-based, human; settings: 10 μM
Protocol: as §1

[4] = test system: TK-10; assay: NCI 60 panel growth inhibition (SRB), renal cancer; type: cell-based, human; settings: TK-10, 10 μM
Protocol: as §1

[5] = test system: A498; assay: NCI 60 panel growth inhibition (SRB), renal cancer; type: cell-based, human; settings: A498, 10 μM
Protocol: as §1

[6] = test system: RXF 393; assay: NCI 60 panel growth inhibition (SRB), renal cancer; type: cell-based, human; settings: RXF 393, 10 μM
Protocol: as §1

[7] = test system: CAKI-1; assay: NCI 60 panel growth inhibition (SRB), renal cancer; type: cell-based, human; settings: CAKI-1, 10 μM
Protocol: as §1

[8] = test system: ACHN; assay: NCI 60 panel growth inhibition (SRB), renal cancer; type: cell-based, human; settings: 10 μM
Protocol: as §1

[9] = test system: MDA-MB-468; assay: NCI 60 panel growth inhibition (SRB), breast cancer; type: cell-based, human; settings: MDA-MB-468, 10 μM
Protocol: as §1

[10] = test system: HS 578T; assay: as above; type: cell-based, human; settings: 10 μM
Protocol: as §1

[11] = test system: T-47D; assay: as above; type: cell-based, human; settings: 10 μM
Protocol: as §1

[12] = test system: MCF7; assay: as above; type: cell-based, human; settings: MCF7, 10 μM
Protocol: as §1

[13] = test system: BT-549; assay: as above; type: cell-based, human; settings: BT-549, 10 μM
Protocol: as §1

[14] = test system: MDA-MB-231/ATCC; assay: as above; type: cell-based, human; settings: 10 μM
Protocol: as §1

[15] = test system: U251; assay: NCI 60 panel growth inhibition (SRB), CNS cancer; type: cell-based, human; settings: U251, 10 μM
In short: (§2)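 24 h post-seeding: Tz fixation, drug added at five concentrations. Adherent lines stopped with cold TCA, washed, dried, SRB read. Growth % vs control and Tz; TGI at Ti = Tz.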

[16] = biological target: T1, CDK2 (Homo sapiens, UniProt P24941); assay: CDK2 kinase assay (BPS kit, Kinase-Glo Max); type: biochemical; settings: mean of two independent experiments ± SD
T1 construct: purchased BPS Biosciences 79599

[17] = test system: PC-3; assay: NCI 60 panel growth inhibition (SRB), prostate cancer; type: cell-based, human; settings: PC-3, 10 μM
Protocol: as §1

[18] = test system: DU-145; assay: as above; type: cell-based, human; settings: DU-145, 10 μM
Protocol: as §1

[19] = test system: LOX IMVI; assay: NCI 60 panel growth inhibition (SRB), melanoma; type: cell-based, human; settings: 10 μM
Protocol: as §1

[20] = test system: UACC-62; assay: NCI 60 panel growth inhibition (SRB), melanoma; type: cell-based, human; settings: UACC-62, 10 μM
Protocol: as §1

[21] = test system: MALME-3M; assay: NCI 60 panel growth inhibition (SRB), melanoma; type: cell-based, human; settings: 10 μM
Protocol: as §1

[22] = test system: MDA-MB-435; assay: NCI 60 panel growth inhibition (SRB), melanoma; type: cell-based, human; settings: MDA-MB-435, 10 μM
Protocol: as §1

[23] = test system: SK-MEL-28; assay: NCI 60 panel growth inhibition (SRB), melanoma; type: cell-based, human; settings: SK-MEL-28, 10 μM
Protocol: as §1

[24] = test system: SK-MEL-5; assay: NCI 60 panel growth inhibition (SRB), melanoma; type: cell-based, human; settings: SK-MEL-5, 10 μM
Protocol: as §1

[25] = test system: M14; assay: NCI 60 panel growth inhibition (SRB), melanoma; type: cell-based, human; settings: M14, 10 μM
Protocol: as §1

[26] = test system: UACC-257; assay: NCI 60 panel growth inhibition (SRB), melanoma; type: cell-based, human; settings: UACC-257, 10 μM
Protocol: as §1

[27] = test system: HT29; assay: NCI 60 panel growth inhibition (SRB), colon cancer; type: cell-based, human; settings: HT29, 10 μM
In short: as §2

[28] = test system: SK-MEL-2; assay: NCI 60 panel growth inhibition (SRB), melanoma; type: cell-based, human; settings: SK-MEL-2, 10 μM
Protocol: as §1

SMILES	GI% [1]	GI% [2]	GI% [3]	GI% [4]	GI% [5]	GI% [7]	GI% [8]	GI% [9]	GI% [10]	GI% [11]	GI% [12]	GI% [13]	GI% [14]	GI% [15]	melting point	GI% [18]	GI% [19]	GI% [20]	GI% [21]	GI% [22]	other results
Cc1ccc2c(c1)C(=NNC(=O)COc1ccccc1-c1nc3ccccc3s1)C(=O)N2 [Compound 9b, 2-(2-(Benzo[d]thiazol-2-yl)phenoxy)-N′-(5-methyl-2-oxoindolin-3-ylidene)acetohydrazide]	27.53%	57.65%	61.93%	93.55%	5.48%	41.90%	52.92%	90.93%	58.35%	48.54%	64.25%	50.79%	63.76%	56.51%	251 to 253 °C	22.75%	84.01%	33.71%	57.82%	17.86%	GI% [6]: 134.59%; IC50 [16]: 0.7 ± 0.013 µM; GI% [17]: 22.82%; GI% [23]: – (GI% < 5%); GI% [24]: 62.70%; GI% [25]: 11.64%; GI% [26]: – (GI% < 5%)
O=C(COc1ccccc1-c1nc2ccccc2s1)NN=C1C(=O)Nc2ccc(Cl)cc21 [Compound 9e, 2-(2-(Benzo[d]thiazol-2-yl)phenoxy)-N′-(5-chloro-2-oxoindolin-3-ylidene)acetohydrazide]	– (GI% < 5%)	– (GI% < 5%)	8.28%	– (GI% < 5%)	– (GI% < 5%)	6.21%	18.45%	5.76%	– (GI% < 5%)	– (GI% < 5%)	15.86%	– (GI% < 5%)	15.59%	– (GI% < 5%)	265 to 267 °C	– (GI% < 5%)	8.86%	10.86%	– (GI% < 5%)	– (GI% < 5%)	GI% [6]: – (GI% < 5%); GI% [27]: – (GI% < 5%); GI% [28]: – (GI% < 5%); GI% [23]: – (GI% < 5%); GI% [24]: 5.89%; GI% [25]: – (GI% < 5%); GI% [26]: – (GI% < 5%)
O=C(COc1ccccc1-c1nc2ccccc2s1)NN=C1C(=O)Nc2ccc(Br)cc21 [Compound 9f, 2-(2-(Benzo[d]thiazol-2-yl)phenoxy)-N′-(5-bromo-2-oxoindolin-3-ylidene)acetohydrazide]	21.89%	101.23%	67.11%	55.14%	12.61%	51.85%	64.71%	63.10%	75.23%	60.76%	55.39%	86.84%	55.33%	86.92%	261 to 263 °C	14.27%	59.05%	25.55%	55.98%	14.63%	GI% [6]: 82.91%; IC50 [16]: 0.2 ± 0.035 µM; GI% [27]: – (GI% < 5%); GI% [17]: 27.83%; GI% [23]: – (GI% < 5%); GI% [24]: 43.95%; GI% [25]: 8.00%; GI% [26]: 13.04%
COc1cccc(-c2nc3ccccc3s2)c1OCC(=O)NN=C1C(=O)Nc2ccc(Br)cc21 [Compound 9l, 2-(2-(Benzo[d]thiazol-2-yl)-6-methoxyphenoxy)-N′-(5-bromo-2-oxoindolin-3-ylidene)acetohydrazide]	30.14%	16.93%	16.14%	– (GI% < 5%)	– (GI% < 5%)	40.19%	22.74%	19.79%	– (GI% < 5%)	41.03%	35.92%	– (GI% < 5%)	27.34%	– (GI% < 5%)	266 to 268 °C	– (GI% < 5%)	19.74%	35.62%	6.30%	5.27%	GI% [6]: 14.21%; GI% [27]: 9.08%; GI% [28]: 9.60%; GI% [23]: – (GI% < 5%); GI% [24]: 19.70%; GI% [25]: – (GI% < 5%); GI% [26]: – (GI% < 5%)
COc1ccc(-c2nc3ccccc3s2)cc1OCC(=O)NN=C1C(=O)Nc2ccc(C)cc21 [Compound 9n, 2-(5-(Benzo[d]thiazol-2-yl)-2-methoxyphenoxy)-N′-(5-methyl-2-oxoindolin-3-ylidene)acetohydrazide]	– (GI% < 5%)	44.99%	5.76%	– (GI% < 5%)	– (GI% < 5%)	12.63%	8.57%	– (GI% < 5%)	5.72%	13.50%	25.33%	– (GI% < 5%)	12.37%	– (GI% < 5%)	224 to 226 °C	7.08%	– (GI% < 5%)	13.88%	18.46%	– (GI% < 5%)	GI% [27]: – (GI% < 5%); GI% [17]: – (GI% < 5%); GI% [28]: – (GI% < 5%); GI% [23]: 6.91%; GI% [24]: 7.31%; GI% [25]: – (GI% < 5%); GI% [26]: – (GI% < 5%)

Reference: article PMC11396129, “Oxindole–benzothiazole hybrids as CDK2 inhibitors and anticancer agents: design, synthesis and biological evaluation” (BMC Chemistry, 2024)
